Converted amounts (≈) assume the structure as drawn. Like-named read-outs stand apart in the source and are kept apart here.
Experiments:
COX-2 = system: COX-2; parameters: method as in PMID 12877584; details: human whole blood assay, cited from earlier work
[1] = Plasma pharmacokinetics after single intravenous administration in beagle dogs; type: in vivo, dog; details: mean ± SD; for HL (plasma half-life): IV 2 mg/kg; for AUC / clearance / half-life / Vd: beagle, dog, plasma, iv, 2 mg/kg; for clearance: read-out: CL (plasma clearance) (converted); for half-life: read-out: HL (plasma half-life) (converted); for Vd: read-out: V (volume of distribution)
Method: To verify this hypothesis, a PK investigation of cimicoxib following IV administration (bolus, 2 mg/kg) was performed on the 12 dogs at least 2 months after the completion of the PK/PD study. Blood samples were obtained from the jugular vein by direct puncture at time 0 (control just before the IV administration) and then 2, 15, 30, 60, 90 min. and 2, 3, 4, 6, 9, 12, 24, 30 and 48 hours after the test article administration.
(§1) Plasma samples were analyzed by a High Performance Liquid Chromatography (HPLC) method using ultraviolet (UV) detection. Briefly, an internal standard (UR-8877) and cimicoxib (UR-8880) were extracted from plasma by a solid liquid (methanol) extraction process using HLB Oasis cartridges (Waters). The extraction yield was about 90%. The HPLC apparatus consists of a pump system equipped with an automatic injector and an UV detector (242 nm). […] The mobile phase was a mixture of 0.65 L of ultra-pure water and 0.35 L of acetonitrile which was delivered at a flow rate of 1 mL per min. Under these conditions, cimicoxib (UR-8880) and the internal standard (UR-8877) were eluted at retention times of 6 to 7 min and 10 to 11 min, respectively. The method was linear over the calibration range of 0.01 to 5 μg/mL using a linear model weighted by 1/X^2. Within-day and day-to-day coefficients of variation were less than 9% and the accuracy ranged from 94 to 103%, indicating an appropriate precision and accuracy for the analytical method. The lack of interference from endogenous compounds was verified on blank plasma from untreated dogs, establishing the specificity of the method. The validated limit of quantification was 0.01 μg/mL.
For the IV study, a non-compartmental analysis was used to determined PK parameters.

[2] = parameters: method as in Vetoquinol, unpublished results; details: non-linear disposition, ref Vetoquinol, unpublished results, cited from earlier work
[3] = Plasma pharmacokinetics after single oral administration in beagle dogs (Study 1); type: in vivo, dog; details: mean ± SD; for half-life: beagle, dog, plasma, po, 2 mg/kg, read-out: terminal half-life (converted)
Method: The study was conducted according to a classical 2×2 crossover design. Briefly, in period one, half of the dog (3 males and 3 females), received a single oral dose of cimicoxib (approximately 2 mg/kg, one 20 mg capsules – Vetoquinol Lure france) 26.5 h after the induction of kaolin inflammation on the left paw; the other half dogs received a placebo treatment at the same time. In period 2, treatments were crossed over for each dog and inflammation was induced on the right paw. A wash-out delay of at least 5 weeks was applied between the two periods. The treatment (cimicoxib or placebo) was blinded to the investigators.
Blood samples (5 mL, heparinized tubes) were obtained from the jugular vein by direct puncture just before inflammation to perform a biochemical checkup of the animals at the beginning of the experiment. Time 0 was defined as the time of treatment administration. Blood samples (5 mL, heparinized tubes) were collected at time 0 (just before cimicoxib or placebo administration) and then at times 30, 60, 90 min, and, 4, 6, 9, 15, 30 and 48 hours post-treatment. Tubes were centrifuged at 3000 G and plasma samples were stored at -20°C.
Plasma samples were analyzed by a High Performance Liquid Chromatography (HPLC) method using ultraviolet (UV) detection. Briefly, an internal standard (UR-8877) and cimicoxib (UR-8880) were extracted from plasma by a solid liquid (methanol) extraction process using HLB Oasis cartridges (Waters). The extraction yield was about 90%. The HPLC apparatus consists of a pump system equipped with an automatic injector and an UV detector (242 nm). […] The validated limit of quantification was 0.01 μg/mL.
Pharmacokinetic and PK/PD modeling were performed by least-squares regression analysis using WinNonlin Professional software (WinNonlin® software, version 4.0.1, Pharsight Corporation, Mountain View, Ca, USA). […] The number of exponential (2 or 3) terms needed to obtain the best fit for each data set was determined by the Akaike’s information criteria and by inspecting the plot of residuals. […]

[4] = Plasma half-life after oral administration in four dog breeds (Study 2); type: in vivo; details: both sexes, 2 mg/kg
Method: Four different sized-breeds from four different private breeders were tested (ten individuals were used from each breed): Anglo-French Hounds, Pointers, Cavalier King Charles Spaniels and Bernese Mountain Dogs. The bodyweights of the dogs ranged between [27.2, 37.4], [16.8, 22.3], [7, 9.8], [44.5, 62.5] kg; the ages were [0.6, 2.5], [1.9, 11.8], [1.7, 6.7], [1.4, 6.4] years for the Anglo-French Hounds, Pointers, Cavalier King Charles Spaniels and Bernese Mountain Dogs breeds, respectively. The sex ratios (male/female) were 5/5, 6/4, 4/6 and 4/6 for these same breeds. Prior to the experiment, all the animals underwent a clinical examination by a veterinarian, along with a complete biochemistry profile. No clinically important abnormality was noted during these examinations.
The half-life of elimination of cimicoxib was studied in four different sized breeds (40 dogs). Two mg/kg of cimicoxib was administered orally, in the form of 10 and 20 mg (hard gelatin capsules, Vetoquinol). For each dog, four blood samples (5 mL, heparinized tubes) were taken, at 6 h, 8 h, 10 h and 24 h after administration of cimicoxib, centrifuged (3000 G) and stored (- 20°C).
as §1
Half-life was estimated by log-linear regression (estimating the slope) using the non-compartmental approach implemented in Winnonlin.

COc1ccc(-c2c(Cl)ncn2-c2ccc(S(N)(=O)=O)cc2)cc1F [cimicoxib]
IC50 COX-2 inhibition (COX-2): 25 ng/mL (≈ 0.0655 µM)
IC50 (COX-2; read-out: IC50 COX-2 inhibition): 66 nM
HL (plasma half-life) ([1]; Extensive metabolizers (n = 8)): 2.72 ± 0.858 h
HL (plasma half-life) ([1]; Poor metabolizers (n = 4)): 5.63 ± 0.727 h
AUC ([1]; Extensive metabolizers (n = 8)): 7200 ± 1810 ng·h/mL
clearance ([1]; Extensive metabolizers (n = 8)): 5.17 mL/min/kg
half-life ([1]; Extensive metabolizers (n = 8)): 162 ± 54 min
Vd ([1]; Extensive metabolizers (n = 8)): 1.12 ± 0.203 L/kg
AUC ([1]; Poor metabolizers (n = 4)): 19200 ± 3150 ng·h/mL
clearance ([1]; Poor metabolizers (n = 4)): 1.83 mL/min/kg
half-life ([1]; Poor metabolizers (n = 4)): 336 ± 102 min
Vd ([1]; Poor metabolizers (n = 4)): 0.89 ± 0.133 L/kg
dose of the simulations to which observed plasma concentrations correspond ([2]; oral dose of 1 mg/kg): 1.46 mg/kg
dose of the simulations to which observed plasma concentrations correspond ([2]; oral dose of 4 mg/kg): 3.18 mg/kg
half-life ([3]; EM beagle dogs (n = 8)): 276 ± 156 min
half-life ([3]; PM beagle dogs (n = 4)): 480 ± 36 min
terminal half-life ([3]; oral 2 mg/kg, EM beagle dogs (n = 8)): 2.9 ± 0.9 h
half-life ([4]; Anglo-French hound, po, oral 2 mg/kg, Anglo-French hounds (n = 10), read-out: plasma half-life, Maximum (converted)): 240 min
half-life ([4]; Anglo-French hound, po, oral 2 mg/kg, Anglo-French hounds (n = 10), read-out: plasma half-life, Mean (converted)): 192 min
half-life ([4]; Anglo-French hound, po, oral 2 mg/kg, Anglo-French hounds (n = 10), read-out: plasma half-life, Minimum (converted)): 120 min
half-life ([4]; Bernese mountain dog, po, oral 2 mg/kg, Bernese mountain dogs (n = 10), read-out: plasma half-life, Maximum (converted)): 348 min
half-life ([4]; Bernese mountain dog, po, oral 2 mg/kg, Bernese mountain dogs (n = 10), read-out: plasma half-life, Mean (converted)): 264 min
half-life ([4]; Bernese mountain dog, po, oral 2 mg/kg, Bernese mountain dogs (n = 10), read-out: plasma half-life, Minimum (converted)): 192 min
half-life ([4]; Cavalier King Charles spaniel, po, oral 2 mg/kg, Cavalier King Charles spaniels (n = 10), read-out: plasma half-life, Maximum (converted)): 210 min
half-life ([4]; Cavalier King Charles spaniel, po, oral 2 mg/kg, Cavalier King Charles spaniels (n = 10), read-out: plasma half-life, Mean (converted)): 162 min
half-life ([4]; Cavalier King Charles spaniel, po, oral 2 mg/kg, Cavalier King Charles spaniels (n = 10), read-out: plasma half-life, Minimum (converted)): 114 min
half-life ([4]; Pointer, po, oral 2 mg/kg, Pointers (n = 10), read-out: plasma half-life, Maximum (converted)): 354 min
half-life ([4]; Pointer, po, oral 2 mg/kg, Pointers (n = 10), read-out: plasma half-life, Mean (converted)): 234 min
half-life ([4]; Pointer, po, oral 2 mg/kg, Pointers (n = 10), read-out: plasma half-life, Minimum (converted)): 150 min
half-life ([4]; oral, the 40 dogs of four breeds, as summarised in Discussion, read-out: terminal half-life): 120 to 240 min

From paper PMC3892053, “Pharmacokinetic/pharmacodynamic modeling for the determination of a cimicoxib dosing regimen in the dog” (BMC Veterinary Research, 2013)
